Like-named read-outs stand apart in the source and are kept apart here.
Target: T1, sortase A (Staphylococcus aureus, UniProt Q2FV99)
T1 construct: gene srtA
Assay: SensoLyte […] Sortase A FRET substrate cleavage assay (5-FAM/QXL)
Type: biochemical

T1 sequence (Q2FV99 whole entry): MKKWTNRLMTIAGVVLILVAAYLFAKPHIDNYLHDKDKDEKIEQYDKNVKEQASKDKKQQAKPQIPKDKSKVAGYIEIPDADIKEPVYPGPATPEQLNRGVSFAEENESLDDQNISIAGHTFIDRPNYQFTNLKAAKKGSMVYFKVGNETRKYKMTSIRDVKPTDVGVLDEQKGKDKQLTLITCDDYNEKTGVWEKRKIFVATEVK

SMILES	IC50 (read-out: IC50)	IC50
CCN(CC)CCCNc1cc([N+](=O)[O-])ccc1-c1ncc2ccccc2n1 [compound 1, N,N-diethyl-N′-(5-nitro-2-(quinazolin-2-yl)phenyl)propane-1,3-diamine]	160 µM	
c1ccc2c(Nc3ccc4[nH]cnc4c3)c3ccccc3nc2c1 [compound 2, acridin-9-yl-(1H-benzoimidazol-5-yl)-amine]		207 µM

Reference: paper PMC8658998, “Identification of Novel Antistaphylococcal Hit Compounds Targeting Sortase A” (Molecules, 2021)
